From patent publication US9598447B2, “Phosphorus-substituted quinoxaline-type piperidine compounds and uses thereof” (Purdue Pharma L.P., priority 2010, dated 2017)
Like-named read-outs stand apart in the source and are kept apart here.

Target: delta opioid receptor (Homo sapiens (Human), UniProt P41143)
Experiment: In vitro delta-opioid receptor binding assay ([3H]-Naltrindole displacement)
[1] = recombinant receptor expressed in CHO-K1 cells, read-out: Ki [Average ± Std Deviation] Opioid Receptor Delta

Sequence of delta opioid receptor (P41143 whole entry): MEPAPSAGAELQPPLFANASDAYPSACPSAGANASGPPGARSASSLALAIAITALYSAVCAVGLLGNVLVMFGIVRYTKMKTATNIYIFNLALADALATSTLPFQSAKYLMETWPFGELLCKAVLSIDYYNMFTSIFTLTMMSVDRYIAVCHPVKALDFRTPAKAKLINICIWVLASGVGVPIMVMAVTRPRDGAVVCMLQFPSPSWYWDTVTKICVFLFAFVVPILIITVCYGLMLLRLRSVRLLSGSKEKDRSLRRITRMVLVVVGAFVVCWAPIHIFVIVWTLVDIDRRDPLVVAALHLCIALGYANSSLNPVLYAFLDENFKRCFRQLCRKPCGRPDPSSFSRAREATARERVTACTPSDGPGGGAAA

With O=c1c(P(=O)(O)O)nc2ccccc2n1[C@H]1C[C@H]2CC[C@@H](C1)N2C12CC3CC(CC1C3)C2 [BB, (4-((1R,3R,5S)-8-((2R,3as,5S,6aS)-octahydro-2,5-methanopentalen-3a-yl)-8-azabicyclo[3.2.1]octan-3-yl)-3-oxo-3,4-dihydroquinoxalin-2-yl)phosphonic acid] the Ki [1] was > 20 µM.

In the case of O=c1c(P(=O)(O)O)nc2ccccc2n1[C@H]1C[C@H]2CCC[C@@H](C1)N2C1CCCCCCC1 [DD, (4-((1R,3R,5S)-9-cyclooctyl-9-azabicyclo[3.3.1]nonan-3-yl)-3-oxo-3,4-dihydroquinoxalin-2-yl)phosphonic acid], the Ki [1] is reported as > 20 µM.

In the case of O=C(NP(=O)(O)O)c1nc2ccccc2n([C@H]2C[C@H]3CCC[C@@H](C2)N3C2CCCCCCC2)c1=O [KK, (4-((1R,3R,5S)-9-cyclooctyl-9-azabicyclo[3.3.1]nonan-3-yl)-3-oxo-3,4-dihydroquinoxaline-2-carbonyl)phosphoramidic acid], the Ki is reported as > 20 µM.
